Assay results published in EP4806911A1, “TRIPLE AGONIST COMPOUND” (Chengdu Aoda Biotechnology Co., Ltd, priority 2023, dated 2025).

How the values were obtained:
Format in all cases: cell-based
[1] = target: T1, GLP-1R (Homo sapiens, UniProt P43220); assay: GLP-1 activity test (cAMP, chemiluminescence); details: CHO-K1 cell line stably expressing GLP-1R; relative luminescence units; read-out: GLP-1 [EC50(pmol)]
T1 construct: expressed in transfected cells; host or cells: CHO-K1
Procedure: (§1) Upon stimulation by a specific agonist, GLP-1R activates the intracellular adenylate cyclase signaling pathway, resulting in an increase in cAMP levels and ultimately leading to insulin production and secretion. A cell line stably transfected with GLP-1R was stimulated with test compounds, thereby rapidly increasing intracellular cAMP levels. The relative luminescence units (RLU) of cells stimulated at various concentrations were measured by a chemiluminescence method, and the EC50 value of the agonist was calculated accordingly. This activity test method is currently a commonly used method for evaluating GLP-1 receptor agonist activity both domestically and internationally. A CHO-K1 cell line stably expressing GLP-1R was used. The stable cells were stimulated with agonists at different concentrations, and the relative luminescence units after stimulation at each concentration were measured to calculate the EC50 value of the agonist.

[2] = target: T2, GIPR (Homo sapiens, UniProt P48546); assay: GIP activity test (cAMP, chemiluminescence); details: CHO-K1 cell line stably expressing GIPR; relative luminescence units; read-out: GIP [EC50(pmol)]
T2 construct: expressed in transfected cells; host or cells: CHO-K1
T2 sequence (P48546 22-466): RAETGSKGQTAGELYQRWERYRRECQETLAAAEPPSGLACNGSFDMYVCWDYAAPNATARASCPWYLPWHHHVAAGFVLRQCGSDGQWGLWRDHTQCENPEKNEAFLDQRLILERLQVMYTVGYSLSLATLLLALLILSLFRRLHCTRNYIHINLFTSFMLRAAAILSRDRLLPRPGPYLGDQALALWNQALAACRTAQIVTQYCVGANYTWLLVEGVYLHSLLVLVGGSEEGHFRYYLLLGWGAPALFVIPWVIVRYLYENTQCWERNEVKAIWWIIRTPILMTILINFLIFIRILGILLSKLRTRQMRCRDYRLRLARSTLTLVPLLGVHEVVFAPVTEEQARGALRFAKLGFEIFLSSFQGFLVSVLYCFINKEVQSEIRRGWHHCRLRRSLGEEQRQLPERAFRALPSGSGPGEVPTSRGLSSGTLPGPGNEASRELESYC
Procedure: as §1, with “agonist, GIPR” for “agonist, GLP-1R”, “with GIPR” for “with GLP-1R”, “activity assay” for “activity test”, “evaluating GIP” for “evaluating GLP-1”, “expressing GIPR” for “expressing GLP-1R”

[3] = target: T3, GCG-R (Homo sapiens, UniProt P47871); assay: GCG activity test (cAMP, chemiluminescence); details: CHO-K1 cell line stably expressing GCG-R; relative luminescence units; read-out: GCG [EC50(pmol)]
T3 construct: expressed in transfected cells; host or cells: CHO-K1
T3 sequence (P47871 26-477, species assumed): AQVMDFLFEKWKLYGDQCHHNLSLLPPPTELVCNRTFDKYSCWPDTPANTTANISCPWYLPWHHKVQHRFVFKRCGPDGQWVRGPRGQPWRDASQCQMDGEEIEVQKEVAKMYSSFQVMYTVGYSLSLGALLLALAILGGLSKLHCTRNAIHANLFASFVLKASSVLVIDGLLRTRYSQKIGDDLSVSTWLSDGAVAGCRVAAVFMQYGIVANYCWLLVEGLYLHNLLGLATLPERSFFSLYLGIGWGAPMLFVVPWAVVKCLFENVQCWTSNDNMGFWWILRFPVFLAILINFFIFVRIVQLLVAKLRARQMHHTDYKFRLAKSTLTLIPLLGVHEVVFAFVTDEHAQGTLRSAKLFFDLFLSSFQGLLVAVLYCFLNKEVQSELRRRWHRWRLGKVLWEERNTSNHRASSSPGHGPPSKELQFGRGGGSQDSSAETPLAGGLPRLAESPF
Procedure: as §1, with “agonist, GCG-R” for “agonist, GLP-1R”, “with GCG-R” for “with GLP-1R”, “activity assay” for “activity test”, “evaluating GCG” for “evaluating GLP-1”, “expressing GCG-R” for “expressing GLP-1R”

T1 sequence (P43220 24-463, species assumed): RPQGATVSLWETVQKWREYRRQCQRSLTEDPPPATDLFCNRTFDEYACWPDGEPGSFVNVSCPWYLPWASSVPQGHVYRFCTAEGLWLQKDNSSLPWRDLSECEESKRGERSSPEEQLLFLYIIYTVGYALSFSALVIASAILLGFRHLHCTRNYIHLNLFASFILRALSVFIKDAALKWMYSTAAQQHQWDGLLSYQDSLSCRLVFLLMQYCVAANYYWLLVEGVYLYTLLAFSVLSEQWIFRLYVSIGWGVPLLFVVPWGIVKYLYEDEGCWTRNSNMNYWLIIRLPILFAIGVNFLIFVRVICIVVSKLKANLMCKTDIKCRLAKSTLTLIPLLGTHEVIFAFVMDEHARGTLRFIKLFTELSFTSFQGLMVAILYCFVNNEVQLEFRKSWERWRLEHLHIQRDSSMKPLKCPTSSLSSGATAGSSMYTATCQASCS

Row | Structure (SMILES) | EC50 [1] | EC50 [2] | EC50 [3]
1 | CC[C@H](C)[C@H](NC(=O)[C@H](Cc1ccccc1)NC(=O)[C@H](C)NC(=O)C(C)(C)NC(=O)[C@H](CCC(N)=O)NC(=O)[C@H](C)NC(=O)[C@H](CCCCNC(=O)COCCOCCNC(=O)COCCOCCNC(=O)CC[C@H](NC(=O)CCCCCCCCCCCCCCCCCCC(=O)O)C(=O)O)NC(=O)[C@H](CCCCN)NC(=O)[C@H](CC(=O)O)NC(=O)[C@H](CC(C)C)NC(=O)C(C)(CC(C)C)NC(=O)[C@@H](NC(=O)[C@H](CO)NC(=O)[C@H](Cc1ccc(O)cc1)NC(=O)[C@H](CC(=O)O)NC(=O)[C@H](CO)NC(=O)[C@@H](NC(=O)C(C)(Cc1ccccc1)NC(=O)[C@@H](NC(=O)CNC(=O)[C@H](CCC(N)=O)NC(=O)C(C)(C)NC(=O)[C@@H](N)Cc1ccc(O)cc1)[C@@H](C)O)[C@@H](C)O)[C@@H](C)CC)C(=O)N[C@@H](CCC(=O)O)C(=O)N[C@@H](Cc1ccc(O)cc1)C(=O)N[C@@H](CC(C)C)C(=O)N[C@@H](CC(C)C)C(=O)N[C@@H](CCC(=O)O)C(=O)NCC(=O)NCC(=O)N1CCC[C@H]1C(=O)N[C@@H](CO)C(=O)N[C@@H](CO)C(=O)NCC(=O)N[C@@H](C)C(=O)N1CCC[C@H]1C(=O)N1CCC[C@H]1C(=O)N1CCC[C@H]1C(=O)N[C@@H](CO)C(N)=O (stereo partly drawn) [Compound 9] | 0.0612 nM | 0.0285 nM | 0.186 nM
2 | CC[C@H](C)[C@H](NC(=O)[C@H](Cc1ccccc1)NC(=O)[C@H](C)NC(=O)C(C)(C)NC(=O)[C@H](CCC(N)=O)NC(=O)[C@H](C)NC(=O)[C@H](CCCCNC(=O)COCCOCCNC(=O)CC[C@H](NC(=O)CCCCCCCCCCCCCCCCCCC(=O)O)C(=O)O)NC(=O)[C@H](CCCCN)NC(=O)[C@H](CC(=O)O)NC(=O)[C@H](CC(C)C)NC(=O)C(C)(CC(C)C)NC(=O)[C@@H](NC(=O)[C@H](CO)NC(=O)[C@H](Cc1ccc(O)cc1)NC(=O)[C@H](CC(=O)O)NC(=O)[C@H](CO)NC(=O)[C@@H](NC(=O)C(C)(Cc1ccccc1F)NC(=O)[C@@H](NC(=O)CNC(=O)[C@H](CCC(N)=O)NC(=O)C(C)(C)NC(=O)[C@@H](N)Cc1ccc(O)cc1)[C@@H](C)O)[C@@H](C)O)[C@@H](C)CC)C(=O)N[C@@H](CCC(=O)O)C(=O)N[C@@H](Cc1ccc(O)cc1)C(=O)N[C@@H](CC(C)C)C(=O)N[C@@H](CC(C)C)C(=O)N[C@@H](CCC(=O)O)C(=O)NCC(=O)NCC(=O)N1CCC[C@H]1C(=O)N[C@@H](CO)C(=O)N[C@@H](CO)C(=O)NCC(=O)N[C@@H](C)C(=O)N1CCC[C@H]1C(=O)N1CCC[C@H]1C(=O)N1CCC[C@H]1C(=O)N[C@@H](CO)C(N)=O (stereo partly drawn) [Compound 5] | 0.0454 nM | 0.0205 nM | 0.138 nM
3 | CC[C@H](C)[C@H](NC(=O)[C@H](Cc1ccccc1)NC(=O)[C@H](C)NC(=O)C(C)(C)NC(=O)[C@H](CCC(N)=O)NC(=O)[C@H](C)NC(=O)[C@H](CCCCNC(=O)COCCOCCNC(=O)CC[C@H](NC(=O)CCCCCCCCCCCCCCCCCCC(=O)O)C(=O)O)NC(=O)[C@H](CCCCN)NC(=O)[C@H](CC(=O)O)NC(=O)[C@H](CC(C)C)NC(=O)[C@](C)(CC(C)C)NC(=O)[C@@H](NC(=O)[C@H](CO)NC(=O)[C@H](Cc1ccc(O)cc1)NC(=O)[C@H](CC(=O)O)NC(=O)[C@H](CO)NC(=O)[C@@H](NC(=O)[C@H](Cc1ccccc1)NC(=O)[C@@H](NC(=O)CNC(=O)[C@H](CCC(N)=O)NC(=O)C(C)(C)NC(=O)[C@@H](N)Cc1ccc(O)cc1)[C@@H](C)O)[C@@H](C)O)[C@@H](C)CC)C(=O)N[C@@H](CCC(=O)O)C(=O)N[C@@H](Cc1ccc(O)cc1)C(=O)N[C@@H](CC(C)C)C(=O)N[C@@H](CC(C)C)C(=O)N[C@@H](CCC(=O)O)C(=O)NCC(=O)NCC(=O)N1CCC[C@H]1C(=O)N[C@@H](CO)C(=O)N[C@@H](CO)C(=O)NCC(=O)N[C@@H](C)C(=O)N1CCC[C@H]1C(=O)N1CCC[C@H]1C(=O)N1CCC[C@H]1C(=O)N[C@@H](CO)C(N)=O [retatrutide, Retatrutide, reference compound] | 0.046 nM | 0.0342 nM | 0.523 nM
4 | CC[C@H](C)[C@H](NC(=O)[C@H](Cc1ccccc1)NC(=O)[C@H](C)NC(=O)C(C)(C)NC(=O)[C@H](CCC(N)=O)NC(=O)[C@H](C)NC(=O)[C@H](CCCCNC(=O)COCCOCCNC(=O)CC[C@H](NC(=O)CCCCCCCCCCCCCCCCCCC(=O)O)C(=O)O)NC(=O)[C@H](CCCCN)NC(=O)[C@H](CC(=O)O)NC(=O)[C@H](CC(C)C)NC(=O)C(C)(CC(C)C)NC(=O)[C@@H](NC(=O)[C@H](CO)NC(=O)[C@H](Cc1ccc(O)cc1)NC(=O)[C@H](CC(=O)O)NC(=O)[C@H](CO)NC(=O)[C@@H](NC(=O)C(C)(Cc1ccccc1)NC(=O)[C@@H](NC(=O)CNC(=O)[C@H](CCC(N)=O)NC(=O)C(C)(C)NC(=O)[C@@H](N)Cc1ccc(O)cc1)[C@@H](C)O)[C@@H](C)O)[C@@H](C)CC)C(=O)N[C@@H](CCC(=O)O)C(=O)N[C@@H](Cc1ccc(O)cc1)C(=O)N[C@@H](CC(C)C)C(=O)N[C@@H](CC(C)C)C(=O)N[C@@H](CCC(=O)O)C(=O)NCC(=O)NCC(=O)N1CCC[C@H]1C(=O)N[C@@H](CO)C(=O)N[C@@H](CO)C(=O)NCC(=O)N[C@@H](C)C(=O)N1CCC[C@H]1C(=O)N1CCC[C@H]1C(=O)N1CCC[C@H]1C(=O)N[C@@H](CO)C(N)=O (stereo partly drawn) [Compound 1] | 0.0502 nM | 0.0226 nM | 0.171 nM
5 | CC[C@H](C)[C@H](NC(=O)[C@H](Cc1ccccc1)NC(=O)[C@H](C)NC(=O)C(C)(C)NC(=O)[C@H](CCC(N)=O)NC(=O)[C@H](C)NC(=O)[C@H](CCCCNC(=O)COCCOCCNC(=O)COCCOCCNC(=O)CC[C@H](NC(=O)CCCCCCCCCCCCCCCCCCC(=O)O)C(=O)O)NC(=O)[C@H](CCCCN)NC(=O)[C@H](CC(=O)O)NC(=O)[C@H](CC(C)C)NC(=O)C(C)(CC(C)C)NC(=O)[C@@H](NC(=O)[C@H](CO)NC(=O)[C@H](Cc1ccc(O)cc1)NC(=O)[C@H](CC(=O)O)NC(=O)[C@H](CO)NC(=O)[C@@H](NC(=O)C(C)(Cc1ccccc1F)NC(=O)[C@@H](NC(=O)CNC(=O)[C@H](CCC(N)=O)NC(=O)C(C)(C)NC(=O)[C@@H](N)Cc1ccc(O)cc1)[C@@H](C)O)[C@@H](C)O)[C@@H](C)CC)C(=O)N[C@@H](CCC(=O)O)C(=O)N[C@@H](Cc1ccc(O)cc1)C(=O)N[C@@H](CC(C)C)C(=O)N[C@@H](CC(C)C)C(=O)N[C@@H](CCC(=O)O)C(=O)NCC(=O)NCC(=O)N1CCC[C@H]1C(=O)N[C@@H](CO)C(=O)N[C@@H](CO)C(=O)NCC(=O)N[C@@H](C)C(=O)N1CCC[C@H]1C(=O)N1CCC[C@H]1C(=O)N1CCC[C@H]1C(=O)N[C@@H](CO)C(N)=O (stereo partly drawn) [Compound 11] | 0.0536 nM | 0.027 nM | 0.166 nM
